# According to paper PMC3385512 (Science Translational Medicine, 2012):
# How the values were obtained:
# [1] = molecular target: Ba/F3 cells expressing EML4-ALK L1196M (Homo sapiens, UniProt Q9HC35+Q9UM73, L1196M); assay: Ba/F3 cell survival assay; type: cell-based; conditions: without IL-3
# [2] = molecular target: T1, Ba/F3 cells expressing EML4-ALK G1202R (Homo sapiens, UniProt Q9HC35+Q9UM73, G1202R); assay: Ba/F3 cell survival assay; type: cell-based
# T1 sequence (Q9HC35+Q9UM73 with tags, fused parts or gaps Q9UM73:G1202R): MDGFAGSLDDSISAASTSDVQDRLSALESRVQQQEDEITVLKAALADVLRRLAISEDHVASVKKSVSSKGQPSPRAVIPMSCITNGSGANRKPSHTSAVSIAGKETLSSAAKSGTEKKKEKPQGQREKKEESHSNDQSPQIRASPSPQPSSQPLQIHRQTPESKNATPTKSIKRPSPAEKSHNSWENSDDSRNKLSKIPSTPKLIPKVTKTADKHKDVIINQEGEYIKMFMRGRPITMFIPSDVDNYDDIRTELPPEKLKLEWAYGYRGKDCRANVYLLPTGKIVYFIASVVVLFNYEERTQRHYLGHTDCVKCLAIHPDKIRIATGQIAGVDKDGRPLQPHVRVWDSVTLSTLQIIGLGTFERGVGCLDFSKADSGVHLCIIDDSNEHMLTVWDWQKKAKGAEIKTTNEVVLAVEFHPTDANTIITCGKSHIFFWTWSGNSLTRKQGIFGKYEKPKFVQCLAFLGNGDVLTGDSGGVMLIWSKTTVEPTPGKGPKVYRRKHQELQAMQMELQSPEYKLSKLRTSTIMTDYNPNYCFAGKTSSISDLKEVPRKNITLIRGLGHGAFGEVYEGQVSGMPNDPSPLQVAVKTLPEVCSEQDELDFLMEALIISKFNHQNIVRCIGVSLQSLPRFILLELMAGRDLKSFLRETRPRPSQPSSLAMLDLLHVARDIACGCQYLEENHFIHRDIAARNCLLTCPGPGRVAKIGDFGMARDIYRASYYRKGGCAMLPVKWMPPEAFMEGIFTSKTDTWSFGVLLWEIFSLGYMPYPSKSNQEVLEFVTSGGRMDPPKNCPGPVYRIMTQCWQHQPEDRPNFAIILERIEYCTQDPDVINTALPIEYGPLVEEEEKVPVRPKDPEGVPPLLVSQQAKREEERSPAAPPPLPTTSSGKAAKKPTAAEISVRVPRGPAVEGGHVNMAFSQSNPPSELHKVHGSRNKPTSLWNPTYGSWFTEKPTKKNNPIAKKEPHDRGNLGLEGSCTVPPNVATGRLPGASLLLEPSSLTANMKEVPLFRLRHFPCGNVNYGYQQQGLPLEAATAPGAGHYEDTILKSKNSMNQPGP
# [3] = molecular target: T2, Ba/F3 cells expressing EML4-ALK S1206Y (Homo sapiens, UniProt Q9HC35+Q9UM73, S1206Y); assay: Ba/F3 cell survival assay; type: cell-based; conditions: without IL-3
# T2 sequence (Q9HC35+Q9UM73 with tags, fused parts or gaps Q9UM73:S1206Y): T1 sequence (Q9HC35+Q9UM73 with tags, fused parts or gaps Q9UM73:G1202R) with R641G, S645Y
# [4] = molecular target: Ba/F3 cells expressing EML4-ALK 1151Tins (Homo sapiens, UniProt Q9HC35+Q9UM73, DUP1151-1151); assay: Ba/F3 cell survival assay; type: cell-based; conditions: Ba/F3 EML4-ALK 1151Tins, without IL-3
# [5] = test system: parental, IL-3-dependent Ba/F3 cells; assay: Ba/F3 cell survival assay; type: cell-based, murine; conditions: parental Ba/F3 cells cultured with IL-3 (off-target toxicity control)
# [6] = test system: phosphorylation of EML4-ALK; assay: phospho-ALK immunoblotting in Ba/F3 cells; type: cell-based; conditions: all Ba/F3 lines expressing wild-type or mutant EML4-ALK
# [7] = test system: H3122 CR2 cells; assay: cell survival assay; type: cell-based
# [8] = test system: H3122 CR3 cells; assay: cell survival assay; type: cell-based; conditions: for sensitivity in cell survival assay: H3122 CR3 (no ALK mutation, EGFR activation), gefitinib 2 μM in combination
# [9] = molecular target: Ba/F3 cells expressing wild-type EML4-ALK (Homo sapiens, UniProt Q9HC35+Q9UM73); assay: Ba/F3 cell survival assay; type: cell-based; conditions: without IL-3
# [10] = molecular target: ALK (V1058-P1620) wild type (Homo sapiens, UniProt Q9UM73); assay: in vitro kinase assay; type: biochemical; conditions: in vitro kinase assay data, tables S1 and S2
# Sequence of ALK (V1058-P1620) wild type (Q9UM73 1058-1620): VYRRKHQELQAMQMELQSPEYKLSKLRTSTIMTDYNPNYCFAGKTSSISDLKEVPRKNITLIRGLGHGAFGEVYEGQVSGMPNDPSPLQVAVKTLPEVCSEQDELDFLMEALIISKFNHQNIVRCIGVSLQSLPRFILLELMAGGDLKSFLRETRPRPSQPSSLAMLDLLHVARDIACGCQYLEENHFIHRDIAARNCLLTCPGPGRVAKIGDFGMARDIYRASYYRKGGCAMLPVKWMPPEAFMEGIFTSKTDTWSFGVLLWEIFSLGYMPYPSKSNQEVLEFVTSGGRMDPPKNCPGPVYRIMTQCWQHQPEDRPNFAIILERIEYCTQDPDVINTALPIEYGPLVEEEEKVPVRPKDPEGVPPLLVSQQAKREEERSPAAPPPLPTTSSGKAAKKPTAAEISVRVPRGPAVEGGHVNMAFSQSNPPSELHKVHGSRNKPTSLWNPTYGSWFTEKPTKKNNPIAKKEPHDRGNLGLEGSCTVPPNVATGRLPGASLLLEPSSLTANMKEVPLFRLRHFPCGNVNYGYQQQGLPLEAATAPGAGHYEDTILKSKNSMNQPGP
# [11] = test system: H3122 cells; assay: cell survival assay; type: cell-based; conditions: parental H3122 cells (EML4-ALK variant 1)
# [12] = test system: H3122 cells; assay: apoptosis assay; type: cell-based; conditions: parental H3122, 1 μM crizotinib, 72 hours
# [13] = test system: MGH006 cells; conditions: from crizotinib-naive ALK-positive NSCLC patient
# [14] = test system: H3122 CR3 cells; conditions: H3122 CR3, 1 μM crizotinib, 2 μM gefitinib or the combination, 72 hours
# [15] = test system: H3122 CR1 cells; assay: cells; conditions: Homo sapiens, NCI-H3122, 72 h
# [16] = test system: KIT-overexpressing H3122 cells; conditions: imatinib 1 μM with crizotinib 1 μM and SCF 100 ng/ml
smiles,measurement,setting,value
"C=CCNC1=C2C[C@@H](C)C[C@H](OC)[C@H](O)[C@@H](C)/C=C(\C)[C@H](OC(N)=O)[C@@H](OC)/C=C\C=C(/C)C(=O)NC(=CC1=O)C2=O [17-AAG, 17-allylamino-17-demethoxygeldanamycin]",potency / resistance in cell survival assay,[1],highly active
same,potency / resistance in cell survival assay,"[2]; Ba/F3 EML4-ALK G1202R, without IL-3",highly active
same,potency / resistance in cell survival assay,[3],highly active
same,potency / resistance in cell survival assay,[4],highly active
same,activity in cell survival assay,[5],at relatively low concentrations
same,effect on phospho-ALK and total ALK protein levels,[6],decreased both phospho-ALK and total ALK protein levels
same,sensitivity in cell survival assay,[7]; H3122 CR2 (1151Tins),highly susceptible
same,sensitivity in cell survival assay,[8],resistant
COc1cc(N2CCC(N3CCN(C)CC3)CC2)ccc1Nc1ncnc(Nc2ccccc2S(=O)(=O)C(C)C)n1 [ASP-3026],potency in cell survival assay,[9],not as potent as crizotinib and CH5424802
same,shift in IC50 compared to wild-type ALK (fold),[2]; Ba/F3 EML4-ALK G1202R relative to wild-type,fourfold
same,potency and selectivity against wild-type ALK in vitro,[10],relatively potent and selective
COc1cc(N2CCC(N3CCN(C)CC3)CC2)ccc1Nc1ncc(Cl)c(Nc2ccccc2S(=O)(=O)C(C)C)n1 [NVP-TAE684],activity in cell survival assay,[5],less effective
C[C@@H](Oc1cc(-c2cnn(C3CCNCC3)c2)cnc1N)c1c(Cl)ccc(F)c1Cl [crizotinib],sensitivity in cell survival assay,[11],highly sensitive
same,IC50,"[7]; Homo sapiens, NCI-H3122, 72 h",> 1000 nM
same,sensitivity in cell survival assay,[8],resistant
same,IC50,"[8]; Homo sapiens, NCI-H3122, 72 h",> 1000 nM
same,induction of apoptosis,[12],marked apoptosis
same,sensitivity in cell survival assay,[13],sensitive
same,induction of apoptosis,[14],failed to induce apoptosis
same,IC50,[15],> 1000 nM
COc1cc2ncnc(Nc3ccc(F)c(Cl)c3)c2cc1OCCCN1CCOCC1 [gefitinib],sensitivity in cell survival assay,[8],resistant
same,induction of apoptosis,[14],failed to induce apoptosis
Cc1ccc(NC(=O)c2ccc(CN3CCN(C)CC3)cc2)cc1Nc1nccc(-c2cccnc2)n1 [imatinib],effect on crizotinib-resistant phenotype,[16],completely reversed the resistant phenotype
